One data set concerns chicken embryos. Set-up: method as in Zhang et al., 2021. To be noted: ref Zhang et al., 2021, cited from earlier work; for Mortality rate: chicken embryos, 50 μg/kg dosage.
Data set [1] deals with estrogen signaling pathway. To be noted: cited from earlier work.
The next data set concerns human fibroblast (WS-1). Set-up: method as in Günes-Bayir et al., 2018. The following applies: dose-dependent manner at 0–100 µM; ref Günes-Bayir et al., 2018; cited from earlier work.
Data set [2] has as its system gastric adenocarcinoma cells. Set-up: method as in Günes-Bayir et al., 2018. To be noted: dose-dependent manner at 0–100 µM; ref Günes-Bayir et al., 2018; cited from earlier work.
For a further data set, the system named is chicken embryo. As to the kind of experiment: Chicken embryonic assay (developmental toxicity, liver TBARS). The format is in vivo. The following applies: for LSI (%) (liver somatic index) / REEW (ratio of embryo to egg weight) / Weights (g) Embryo / Weights (g) Heart / Weights (g) Liver: mean ± SD. The procedure: In total, 124 fertilized Leghorn eggs were obtained from the University of Delaware research farm. […] On day 6, the eggs were candled, and a hole was drilled for injection of each chemical at two dosage levels, or VC at 0.2 mL. The hole was sealed with Duco Cement, and eggs were placed back in the egg incubator at 38°C and 60% relative humidity. Each test was repeated in two independent trials. The incubation ended on day 18, and the number of dead embryos was recorded during the incubation period. All embryos were dissected and evaluated for deformation, embryo mass, liver mass, heart mass, ratio of embryo to egg weight (REEW), liver somatic index (LSI), and TBARS levels as described in ([Zhang and Wu, 2022]). Each test was repeated in two independent trials and in duplicate for each trial.
(§1) All data were reported as the mean ± standard deviation (SD) of at least two independent trials. The MCF-7 cell proliferation rates of each compound at different concentrations were compared using a one-way analysis of variance (ANOVA) followed by Dunnett’s test with the statistical software JMP 16.0. The developmental indexes (REEW, LSI, weights) and TBARS values obtained from chicken embryonic assays were evaluated by a one-way ANOVA followed by Dunnett’s test performed with JMP.
The developmental toxicity of phenolic-soy BCFAs was evaluated at dosages reported for natural phenolics via a chicken embryo model ([Zhang et al., 2021]; [Zhang and Wu, 2022]). In the present study, 0.1% DMSO in PBS was used as VC.

The next data set has as its system MCF-7 cells. In words: MCF-7 cell proliferation assay (estrogenic activity). The following applies: 10 and 100 nM, p < 0.05, positive control. The format is cell-based. The procedure: MCF-7 cells were grown and maintained as previously described ([Peng et al., 2018]). The EA of creosote, creosote-soy BCFA, and iso-oleic acid was investigated at 10 nM to 1 μM. We evaluated EA for newly synthesized phenolic soy BCFAs with a focus on those who have both good performances in antimicrobial activity and low developmental toxicity in the chicken embryo model. Chemicals were dissolved in DMSO and diluted to the test concentrations (0.1% DMSO). No treatment and VC (0.1% DMSO in cell medium) were included as controls. Fresh medium with test compounds was added on day 2 and refreshed every 2 days. After 6-day exposure, cell numbers were measured by MTT assay using a microplate spectrophotometer ([Peng et al., 2018]). The test was repeated in two independent trials with triplicates for each trial, and cell proliferation rates were calculated for each compound.
as §1

Where [3] appears, read: chicken embryo day 18, dosage 3.1 μg/kg.
The mark [4] stands for this setting: chicken embryo day 18, dosage 31 μg/kg.
Setting [5] is: chicken embryo day 18, egg injection day 6, dosage 3.1 μg/kg.
The mark [6] stands for this setting: chicken embryo day 18, egg injection day 6, dosage 31 μg/kg.
[7] abbreviates: chicken embryo day 18, egg injection day 6, dosage 31 μg/kg, listed as phenol.

On to `Cc1ccc(C(C)C)cc1O` [Carvacrol], for which the “TBARS levels in fetal chicken liver” value in the data set on chicken embryos (50 μg/kg) is reported as “significantly increased TBARS levels”. In addition, the Mortality rate in the data set with chicken embryos is 45.5%. Moreover, the “Estrogenic activity (EA)” value in data set [1] (at 10^–12 M, ref Zhang et al., 2021) is “weak EA”. Also, the “Reactive oxygen species generation” value (in the data set with human fibroblast (WS-1); in data set [2]) was “induced reactive oxygen species generation” each time.
Turning to `Oc1ccccc1` [Phenol], in the data set on chicken embryo (setting [3]), the “LSI (%) (liver somatic index)” value turned out to be 2.20 ± 0.25%, the “REEW (ratio of embryo to egg weight)” value is reported as 0.39 ± 0.014, the “Weights (g) Embryo” value is given as 23.61 ± 2.74 g and the “Weights (g) Heart” value amounted to 0.21 ± 0.03 g. Moreover, the “Weights (g) Liver” value with chicken embryo (setting [3]) amounted to 0.52 ± 0.12 g. In addition, in the data set with chicken embryo (setting [4]), the “LSI (%) (liver somatic index)” value is recorded as 2.23 ± 0.23%, the “REEW (ratio of embryo to egg weight)” value was found to be 0.36 ± 0.029, the “Weights (g) Embryo” value came out at 22.04 ± 2.54 g and the “Weights (g) Heart” value came out at 0.22 ± 0.01 g. Also, in the data set on chicken embryo (setting [4]), the “Weights (g) Liver” value is on record as 0.52 ± 0.04 g. Further, in the data set with chicken embryo (setting [5]), the “Malformation rate (%)” value is reported as 0.0 (0) % and the “Mortality rate (%)” value is 0.0 (0) %. Also, the “Mortality rate (%)” value with chicken embryo (chicken embryo day 18, egg injection day 6, dosage 3.1 μg/kg, listed as phenol) is “no mortality”. In the data set on chicken embryo (setting [6]), the “Malformation rate (%)” value was 12.5 (1) % and the “Mortality rate (%)” value is 0.0 (0) %. In the data set on chicken embryo (setting [7]), the “Malformation rate (%)” value was “deformed embryos (stunting) were observed” and the “Mortality rate (%)” value is listed as “no mortality”.
With `Cc1ccc(C(C)C)c(O)c1` [Thymol], the Mortality rate entry in the data set with chicken embryos is “no death was found”.
Turning to `C[C@]12CC[C@@H]3c4ccc(O)cc4CC[C@H]3[C@@H]1CC[C@@H]2O` [E2, 17β-Estradiol], the “Cell proliferation rate compared with no treatment and VC” value in the data set on MCF-7 cells is “significantly increased cell proliferation rates”. The “Concentration of highest EA” value in data set [1] (across the test range from 10^–15 to 10^–4 M, ref Peng et al., 2018) is listed as 10 nM. In data set [1] (our previous findings, ref not given), the “Concentration of peak EA” value was 10^−9 M.
